# Data reported in US12678412B2, “Substituted tolans for the modulation of microbial colonization” (BioMendics, LLC, priority 2017, dated 2026).
# Tests used:
# wild type E. Coli = conditions: previous data; cited from earlier work
# S. typhimurium TA100 = assay: Dose range finding colony forming assay, strain TA100 with metabolic activation; format: cell-based; conditions: positive control, 2 μg/plate
# Procedure: (§1) A series of dose range finding assays were performed with five bacterial strains, S. typhimurium TA97a, TA98, TA100, TA1535, and E. coli WP2 uvrA pKM101, with and without metabolic activation at three plates per dose. The following doses, along with positive and negative controls, were tested: 5000, 2500, 1250, 500, 250, 125, 50, 20, 10, 5, 2, 1, and 0.2 μg/plate. The plates were evaluated for toxicity (a decrease in plate counts with increasing dose and/or a visible thinning of the background lawn) and for precipitation of the test article. Metabolic activation was included in some samples by adding phenobarbital/benzoflavone-induced rat liver S9 fractions with cofactors (S9 mix). Prior to use, freshly thawed aliquots of rat liver S9 were mixed with a sterile cofactor mix. The S9 mix contains a 10% liver S9 concentration and was refrigerated or stored on ice until used. When testing with metabolic activation, the S9 mix was used in the assay tube in place of phosphate buffer.
# (§2) Dosing formulations were prepared to deliver all doses in a constant volume of 0.1 mL. The highest dose was prepared from test article weighed to the nearest 0.1 mg and the remaining formulations were prepared as serial dilutions from the high dose stock formulation. Using a permanent marking pen or computer printed labels, assay plates were labeled with the project and study numbers and the date. Assay plates and tubes were labeled with a unique identifier, which was used to match the assay tubes with the properly identified minimal glucose agar plate.
# (§3) The pre-incubation method was used to perform the assay. The assay mix consisted of 0.1 mL of the test article formulation or control article, 0.5 mL S9 mix or phosphate buffer, and 0.1 mL of bacterial culture. Assay tubes were incubated at 37±1° C. with gentle agitation for 20±1 minutes, then 2.0-2.5 mL top agar was added to the assay mix and the top agar/assay mix poured onto appropriately labeled minimal glucose agar plates. Once the top agar hardened, the plates were inverted and incubated at 37±1° C. for 48±2 hours. Plates were counted with the Sorcerer (v. 2.2)/Ames Study Manager (v. 1.2.4) system from Perceptive Instruments (Suffolk, UK). With this system, plate counts are automatically transferred from the plate imager (Sorcerer) to a Study Manager spreadsheet, and the data are stored in a secure manner on an Oracle database. Some plates were hand counted, e.g., if sample precipitate interferes with automatic counting or toxicity results in the formation of microcolonies, in which case, counts for these plates were entered into the spreadsheet manually. Plates were scored also with the extent of colonization by a post fix code.
# [1] = system: NEB 5 α competent E. coli; assay: Bacterial colony forming assay (Examples 6-9); format: cell-based; conditions: alcohol gel
# Procedure: NEB 5 α competent E. coli were retrieved from frozen cultures and grown overnight in a bacterial incubator at 37° C. Proliferating cultures of bacteria were used in a colony forming assay by adding 25 μL of bacteria from the overnight culture to 10 mL of fresh Lysogeny Broth (LB; Bertani, G. (2004). “Lysogeny at mid-twentieth century: P1, P2, and other experimental systems”. Journal of Bacteriology. 186 (3): 595-600. PMC 321500. PMID 14729683. doi:10.1128/JR.186.3.595-600.2004). 1 mL of this diluted bacteria was added to various dilutions of formulations of substituted tolan compounds as described in Table C, below and in charts of the corresponding Figures.
# One mL of each formulation was mixed with 1 mL of diluted bacteria in LB and put onto agar plates. Alcohol gels were allowed to dry and incubated overnight for 16-18 hrs. Control plates consisted of 2 mL alcohol gel plus 1 mL diluted bacteria, resulting in a colony count of less than 10 colonies, a 1 mL alcohol gel plus 1 mL diluted bacteria, resulting in a partial lawn of bacteria (colonies were too close to count appropriately), 1 mL diluted bacteria alone, resulting in a full lawn of bacteria (no distinguishable colonies), and an appropriate dilution of PEG-400 and HPβCD into 1 mL of alcohol gel plus 1 mL diluted bacteria, resulting in a lawn of bacteria. Plate area was then selected and the Image J colony counter was used to obtain colony counts (Size (pixels squared) 5-1000 and circularity 0.5-1).
# S. typhimurium TA97a = assay: Dose range finding colony forming assay, strain TA97a with metabolic activation; format: cell-based; conditions: positive control, 2.5 μg/plate
# Procedure: as §1, §2, §3
# S. typhimurium TA98 = assay: Dose range finding colony forming assay, strain TA98 with metabolic activation; format: cell-based; conditions: positive control, 2 μg/plate
# Procedure: as §1, §2, §3
# S. typhimurium TA1535 = assay: Dose range finding colony forming assay, strain TA1535 without metabolic activation; format: cell-based; conditions: positive control, 1 μg/plate
# Procedure: as §1, §2, §3
# [2] = system: Methicillin Resistant Staphylococcus aureus (MRSA USA 300); assay: Colony forming assay, spread plate, MRSA USA 300; format: cell-based; conditions: Tobramycin 600 μg/mL; compared to the untreated control; 24 h; FIGS. 6A-6B
# Procedure: A fresh culture of pathogenic isolate was used in these examples. The bacterial strains used were Methicillin Resistant Staphylococcus aureus (MRSA USA 300), Pseudomonas aeruginosa ATCC 27312, and Candida albicans ATCC 64550.
# FIG. 5 illustrates the spread plate method used in these examples. In sum, agar plates were made, bacteria were diluted to 10^6 or 10^8 CFU/mL, bacteria and drug were mixed together and then plated. Glass spreading beads were used because they give a better bacterial spread. Plates were incubated for 24 hrs then the colonies that formed were counted.
# Proliferating cultures of Methicillin Resistant Staphylococcus aureus (MRSA, USA 300) were used in a colony forming assay. Freeze-dried bacteria culture of MRSA was recovered by swabbing a 3-cm diameter growth area and resuspending it to obtain a final inoculum suspension of approximately 10^8 CFU/mL. The concentration was confirmed using historical optical density measurements. The total compound BM3103 was suspended in a 70% v/v alcohol gel formulation (Formulation A) before the introduction of bacteria, with the vehicle consisting of solely the 70% v/v alcohol gel. MRSA at 10^8 CFU/mL was challenged with equal parts of a high, medium, and low dose of BM3103, vehicle formulation, positive control (Tobramycin, 600 μg/mL), or untreated control (phosphate buffered saline). The inoculum was plated on Tryptic Soy Broth plates at 37° C. for 24 h. Plates were photographed and counted. The treatment for each experiment was done in triplicate, and the experiment was repeated three times, for a total of 9 plates per group.
# Colony counts for each treatment were tabulated and the Log of the colony forming units/mL (Log CFU/mL) was determined. The mean and standard deviation of the Log CFU/mL were calculated for each treatment. A one-way analysis of variance was performed at a 95% confidence interval.
# [3] = system: Methicillin Resistant Staphylococcus aureus (MRSA, USA 400); assay: Colony forming assay, 24 h plate assay, MRSA USA 400; format: cell-based; conditions: Tobramycin 600 μg/mL, compared to the vehicle control, FIG. 9
# Procedure: Proliferating cultures of Methicillin Resistant Staphylococcus aureus (MRSA, USA 400) were used in a colony forming assay. Frozen stock cultures of MRSA USA 400 were thawed and grown overnight in tryptic soy broth (TSB) with shaking at 37° C. The overnight culture (0.5-1.0 mL) was added to 100 mL TSB and grown at 37° C. with shaking and monitored for an optical density of 0.55-0.60 in order to obtain a final inoculum suspension of approximately 10^8 CFU/mL.
# BM3103 was suspended into a 70% v/v alcohol gel formulation to acquire the desired % w/v tested within the example. Each concentration was vortexed thoroughly until dissolved. Initial tested concentrations of BM3103 were 1, 0.5, and 0.1% w/v. These concentrations and the alcohol gel vehicle were mixed with equal parts of the 10^8 CFU/mL inoculum to obtain a final concentration of 0.5, 0.25, and 0.05% (22 mM, 11 mM, and 2 mM) BM3103. Tobramycin (600 μg/mL) served as the positive control. Vehicle and BM3103 formulations contained matching final concentration of 35% v/v alcohol.
# BM3103 was dissolved into Transcutol (diethylene glycol monoethyl ether) at 2.5% w/v and vortexed until dissolved. This concentration was then serial diluted to achieve the remaining concentrations tested. Before plating, 100 μL of the final inoculum (10^8 CFU/mL) was mixed with 20 μL TSB broth and 80 μL of BM3103 doses or vehicle. Tobramycin, 600 μg/mL, served as the positive control. The final plating concentrations for BM3103 were 1, 0.5, 0.25, and 0.1% w/v (44 mM, 22 mM, 11 mM, 4 mM) BM3103. Vehicle and BM3103 formulations contained matching final concentration of 40% v/v Transcutol.
# The above listed formulations combined with the MRSA inoculum were plated onto TSB agar plates. The plates were grown at 37° C. for 24 h, imaged, and the bacteria colonies were counted. The experiment was done in triplicate at each concentration level described above. Colony counts for each treatment were tabulated and the Log of the colony forming units/mL (Log CFU/mL) were determined. The mean and the standard error of the mean were calculated for each treatment.
structure (smiles),measurement,setting,value
"Oc1ccc(C#Cc2cc(O)cc(O)c2)cc1 [3,5,4′-trihydroxytolan]",Effectiveness against wild type E. Coli,wild type E. Coli,ineffective
"c1ccc2c(c1)cc1ccc3cccc4ccc2c1c34 [BAP_Moltox, Benzo(a) pyrene_Moltox, reference compound]",Colony forming units/plate,S. typhimurium TA100,806.0 colony forming units/plate
"Oc1ccc(C#Cc2ccc(C(F)(F)F)cc2)cc1 [BM3213, 4-hydroxy-4′-(trifluoro)methyltolan]",Inhibition of E. coli growth,"[1]; 2.23 mM, FIG. 3",very inhibitory to E. coli
same,Inhibition of E. coli growth,"[1]; concentrations 10 fold diluted from 2.23 mM, FIG. 3",less so
"COc1ccc(C#Cc2ccc(OC)c(OC)c2)cc1 [BM3303, 3,4,4′-trimethoxytolan]",Inhibition of E. coli growth,"[1]; 1.11 mM, FIG. 4",an inhibitor to E. coli
same,Dose dependence of inhibition of E. coli,[1]; FIG. 4,dose dependent inhibitory effects
same,Inhibition of E. coli growth,"[1]; concentrations 10-fold diluted from 1.11 mM, FIG. 4",less so
"Nc1ccc2cc3ccccc3cc2c1 [Compound 2A, 2-Aminoanthracene, reference compound]",Colony forming units/plate,S. typhimurium TA97a,3241.3 colony forming units/plate
same,Colony forming units/plate,S. typhimurium TA98,2315.0 colony forming units/plate
"[N-]=[N+]=[N-] [NaN3, Sodium Azide, reference compound]",Colony forming units/plate,S. typhimurium TA1535,714.7 colony forming units/plate
"NC[C@H]1O[C@H](O[C@H]2[C@H](O)[C@@H](O[C@H]3O[C@H](CO)[C@@H](O)[C@H](N)[C@H]3O)[C@H](N)C[C@@H]2N)[C@H](N)C[C@@H]1O [Tobramycin, reference compound]",Reduction of MRSA USA 300 counts,[2],6 fold
same,Reduction of MRSA USA 400 counts,[3],4 fold
